Test results from the NIST ThermoML archive (doi:10.1021/acs.jced.6b00121).
Values joined by “and” are separate entries in the source; they are usually repeats but may differ in a detail not shown here. Identical values can stand only once.

Columns and labels:
[1] = xn = mol fraction of the nth substance listed; settings: 100 kPa, Liquid, x2 = 0; for viscosity: Falling or rolling sphere viscometry; for mass density: Vibrating tube method
[2] = 100 kPa, Liquid; for viscosity: Falling or rolling sphere viscometry; for mass density: Vibrating tube method

CCCO [propan-1-ol] + CCCCCCCCCCC
[1]
Settings	mass density [kg/m3]	viscosity [mPa·s]
283.15 K	811.48	2.834
288.15 K	807.54	2.489
293.15 K	803.58	2.195
298.15 K	799.59	1.929
303.15 K	795.58	1.714
308.15 K	791.53	1.536
313.15 K	787.44	1.372
318.15 K	783.304	1.229
323.15 K	779.11	1.113
328.15 K	774.86	1.002
333.15 K	770.54	0.905
338.15 K	766.15	0.819
343.15 K	761.67	0.752
348.15 K	757.09	0.685
353.15 K	752.44	0.625
358.15 K	747.65	0.574
363.15 K	742.77	0.528

CCCCCO [pentan-1-ol]
[2]
Settings	mass density [kg/m3]	viscosity [mPa·s]
283.15 K	821.9	5.431
288.15 K	818.3	4.655
293.15 K	814.68	4.011
298.15 K	811.03	3.474
303.15 K	807.37	3.023
308.15 K	803.67	2.642
313.15 K	799.94	2.32
318.15 K	796.17	2.045
323.15 K	792.36	1.81
328.15 K	788.5	1.608
333.15 K	784.59	1.434
338.15 K	780.62	1.283
343.15 K	776.58	1.152
348.15 K	772.49	1.038
353.15 K	768.33	0.939
358.15 K	764.08	0.852
363.15 K	759.77	0.776

CCCCCO [pentan-1-ol] + CCCCCCCCCCC
[1]
Settings	mass density [kg/m3]	viscosity [mPa·s]
283.15 K	821.9	5.431
288.15 K	818.3	4.655
293.15 K	814.68	4.011
298.15 K	811.03	3.474
303.15 K	807.37	3.023
308.15 K	803.67	2.642
313.15 K	799.94	2.32
318.15 K	796.17	2.045
323.15 K	792.36	1.81
328.15 K	788.5	1.608
333.15 K	784.59	1.434
338.15 K	780.62	1.283
343.15 K	776.58	1.152
348.15 K	772.49	1.038
353.15 K	768.33	0.939
358.15 K	764.08	0.852
363.15 K	759.77	0.776

CCCCO [butan-1-ol]
[2]
Settings	mass density [kg/m3]	viscosity [mPa·s]
283.15 K	817.07	4.046
288.15 K	813.32	3.514
293.15 K	809.55	3.066
298.15 K	805.76	2.59
303.15 K	801.94	2.28
308.15 K	798.09	2.015
313.15 K	794.2	1.786
318.15 K	790.27	1.589
323.15 K	786.3	1.427
328.15 K	782.27	1.278
333.15 K	778.18	1.147
338.15 K	774.03	1.032
343.15 K	769.8	0.934
348.15 K	765.49	0.842
353.15 K	761.12	0.762
358.15 K	756.64	0.693
363.15 K	752.08	0.633

CCCCCCO [hexan-1-ol]
[2]
Settings	mass density [kg/m3]	viscosity [mPa·s]
283.15 K	825.94	7.487
288.15 K	822.42	6.307
293.15 K	818.88	5.348
298.15 K	815.32	4.555
303.15 K	811.74	3.903
308.15 K	808.13	3.361
313.15 K	804.5	2.912
318.15 K	800.83	2.538
323.15 K	797.12	2.228
328.15 K	793.37	1.97
333.15 K	789.57	1.744
338.15 K	785.72	1.553
343.15 K	781.83	1.39
348.15 K	777.86	1.255
353.15 K	773.86	1.125
358.15 K	769.78	1.018
363.15 K	765.64	0.925

CCCCO [butan-1-ol] + CCCCCCCCCCC
[1]
Settings	mass density [kg/m3]	viscosity [mPa·s]
283.15 K	817.07	4.046
288.15 K	813.32	3.514
293.15 K	809.55	3.066
298.15 K	805.76	2.59
303.15 K	801.94	2.28
308.15 K	798.09	2.015
313.15 K	794.2	1.786
318.15 K	790.27	1.589
323.15 K	786.3	1.427
328.15 K	782.27	1.278
333.15 K	778.18	1.147
338.15 K	774.03	1.032
343.15 K	769.8	0.934
348.15 K	765.49	0.842
353.15 K	761.12	0.762
358.15 K	756.64	0.693
363.15 K	752.08	0.633

CCCO [propan-1-ol]
[2]
Settings	mass density [kg/m3]	viscosity [mPa·s]
283.15 K	811.48	2.834
288.15 K	807.54	2.489
293.15 K	803.58	2.195
298.15 K	799.59	1.929
303.15 K	795.58	1.714
308.15 K	791.53	1.536
313.15 K	787.44	1.372
318.15 K	783.304	1.229
323.15 K	779.11	1.113
328.15 K	774.86	1.002
333.15 K	770.54	0.905
338.15 K	766.15	0.819
343.15 K	761.67	0.752
348.15 K	757.09	0.685
353.15 K	752.44	0.625
358.15 K	747.65	0.574
363.15 K	742.77	0.528

CCCCCCO [hexan-1-ol] + CCCCCCCCCCC
[1]
Settings	mass density [kg/m3]	viscosity [mPa·s]
283.15 K	825.94	7.487
288.15 K	822.42	6.307
293.15 K	818.88	5.348
298.15 K	815.32	4.555
303.15 K	811.74	3.903
308.15 K	808.13	3.361
313.15 K	804.5	2.912
318.15 K	800.83	2.538
323.15 K	797.12	2.228
328.15 K	793.37	1.97
333.15 K	789.57	1.744
338.15 K	785.72	1.553
343.15 K	781.83	1.39
348.15 K	777.86	1.255
353.15 K	773.86	1.125
358.15 K	769.78	1.018
363.15 K	765.64	0.925

CCCCCCCCCCC [undecane]
[2]
Settings	mass density	viscosity [mPa·s]
283.15 K	747.78 kg/m3	1.371
288.15 K	744.06 kg/m3	1.249
293.15 K	740.35 kg/m3	1.145
298.15 K	736.64 kg/m3	1.062
303.15 K	732.93 kg/m3	0.982
308.15 K	729.23 kg/m3	0.91
313.15 K	725.53 kg/m3	0.847
318.15 K	721.82 kg/m3 and 721.818 kg/m3	0.79
323.15 K	718.11 kg/m3	0.74
328.15 K	714.39 kg/m3	0.692
333.15 K	710.68 kg/m3	0.651
338.15 K	706.95 kg/m3	0.615
343.15 K	703.22 kg/m3	0.58
348.15 K	699.47 kg/m3	0.549
353.15 K	695.72 kg/m3	0.522
358.15 K	691.96 kg/m3	0.497
363.15 K	688.18 kg/m3	0.475
